We go through one molecule from patent publication US12077605B2, “Cysteine protease inhibitors and methods of use thereof” (ANIXA BIOSCIENCES, INC., priority 2022, dated 2024).

A word on the IC50: it is the concentration at which inhibition is half-maximal.

For this experiment, the target named is SARS-CoV-2 main protease M^pro (Severe acute respiratory syndrome coronavirus 2 (2019-nCoV) (SARS-CoV-2), UniProt P0DTD1). Description: Mpro enzyme activity assay (biochemical FRET-based). The conditions noted are these: recombinant Mpro (Ser1-Gln306); EDANS/Dabcyl FRET substrate peptide 2 μM; 30 min pre-incubation; pH 7.3; read-out: Mpro inhibition IC50.

Each structure is given as a SMILES string.

Take `CNC(=O)C(=O)[C@H](CN1CCNC1=O)NC(=O)[C@H](CC(C)C)NC(=O)c1cc2c(OC)cccc2[nH]1` [compound 2, 4-methoxy-N-((S)-4-methyl-1-(((S)-4-(methylamino)-3,4-dioxo-1-(2-oxoimidazolidin-1-yl)butan-2-yl)amino)-1-oxopentan-2-yl)-1H-indole-2-carboxamide]: the IC50 turned out to be 114 nM.
